Measurements from the supplement of paper PMC11061612.

What was measured:
AZD1775 = compound: C=CCn1c(=O)c2cnc(Nc3ccc(N4CCN(C)CC4)cc3)nc2n1-c1cccc(C(C)(C)O)n1 [AZD1775]; settings: max 3 µM
Outline: (§1)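 Following 24 hours at 37°C and 5% CO2, cancer cell lines in 1536-well plates with 7.5 μl DMEM/F12 or RPMI and 10% FBS were dosed for 72 hours, final DMSO typically being 0.2%. CellTiter-Glo 2.0 luminescence, scaled between blank-well and DMSO-well means, gave the viability readout. Dose responses were fitted to a two-parameter logistic curve with a non-linear mixed effects model, and the single-agent IC50 was derived from this fit.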

AZD6738 = compound: C[C@@H]1COCCN1C2=NC(=NC(=C2)C3(CC3)[S@](=N)(=O)C)C4=C5C=CNC5=NC=C4 [AZD6738]; settings: max 10 µM
Outline: as §1

Taselisib = compound: Cc1nc(-c2cn3c(n2)-c2ccc(-c4cnn(C(C)(C)C(N)=O)c4)cc2OCC3)n(C(C)C)n1 [Taselisib]; settings: max 10 µM
Outline: as §1

Gemcitabine = compound: Nc1ccn([C@@H]2O[C@H](CO)[C@@H](O)C2(F)F)c(=O)n1 [Gemcitabine]; settings: max 0.3 µM
Outline: as §1

Paclitaxel = compound: CC(=O)O[C@H]1C(=O)[C@@]2(C)[C@H]([C@H](OC(=O)c3ccccc3)[C@]3(O)C[C@H](OC(=O)[C@H](O)[C@@H](NC(=O)c4ccccc4)c4ccccc4)C(C)=C1C3(C)C)[C@]1(OC(C)=O)CO[C@@H]1C[C@@H]2O [Paclitaxel]; settings: max 3 µM
Outline: as §1

AZD7648 = compound: Cc1cc2ncnn2cc1Nc1ncc2c(n1)n(C1CCOCC1)c(=O)n2C [AZD7648]; settings: max 10 µM
Outline: as §1

AZD4320 = compound: CN(CC[C@H](CSC1=CC=CC=C1)NC2=C(C=C(C=C2)S(=O)(=O)NC(=O)C3=CC=C(C=C3)N4CCC(CC4)[C@H](C5=CC=CC=C5C6=CC=C(C=C6)Cl)O)S(=O)(=O)C(F)(F)F)CCO [AZD4320]; settings: max 1 µM
Outline: as §1

Venetoclax = compound: CC1(C)CCC(CN2CCN(c3ccc(C(=O)NS(=O)(=O)c4ccc(NCC5CCOCC5)c([N+](=O)[O-])c4)c(Oc4cnc5[nH]ccc5c4)c3)CC2)=C(c2ccc(Cl)cc2)C1 [Venetoclax]; settings: max 1 µM
Outline: as §1

Carboplatin = compound: C1CC(C1)(C(=O)[O-])C(=O)[O-].N.N.[Pt+2] [Carboplatin]; settings: max 10 µM
Outline: as §1

SRA737 = compound: N#Cc1cnc(Nc2cc(NC[C@H]3CNCCO3)c(C(F)(F)F)cn2)cn1 [SRA737]; settings: max 10 µM
Outline: as §1

Selumetinib = compound: Cn1cnc2c(F)c(Nc3ccc(Br)cc3Cl)c(C(=O)NOCCO)cc21 [Selumetinib]; settings: max 10 µM
Outline: as §1

AZD5991 = compound: Cc1c2c(nn1C)CSCc1cc(n(C)n1)CSc1cc(c3ccccc3c1)OCCCc1c(C(=O)O)n(C)c3c-2c(Cl)ccc13 [AZD5991]; settings: max 1 µM
Outline: as §1

AZD0156 = compound: CN(C)CCCOc1ccc(-c2ccc3ncc4c(c3c2)n(C2CCOCC2)c(=O)n4C)cn1 [AZD0156]; settings: max 3 µM
Outline: as §1

Palbociclib = compound: CC(=O)c1c(C)c2cnc(Nc3ccc(N4CCNCC4)cn3)nc2n(C2CCCC2)c1=O [Palbociclib]; settings: max 10 µM
Outline: as §1

Alisertib = compound: COc1cc(Nc2ncc3c(n2)-c2ccc(Cl)cc2C(c2c(F)cccc2OC)=NC3)ccc1C(=O)O [Alisertib]; settings: max 10 µM
Outline: as §1

Gefitinib = compound: COc1cc2ncnc(Nc3ccc(F)c(Cl)c3)c2cc1OCCCN1CCOCC1 [Gefitinib]; settings: max 10 µM
Outline: as §1

Dasatinib = compound: CC1=C(C(=CC=C1)Cl)NC(=O)C2=CN=C(S2)NC3=CC(=NC(=N3)C)N4CCN(CC4)CCO [Dasatinib]; settings: max 2 µM
Outline: as §1

Doxorubicin = compound: COc1cccc2c1C(=O)c1c(O)c3c(c(O)c1C2=O)C[C@@](O)(C(=O)CO)C[C@@H]3O[C@H]1C[C@H](N)[C@H](O)[C@H](C)O1 [Doxorubicin]; settings: max 1 µM
Outline: as §1

MK-2206 = compound: NC1(c2ccc(-c3nc4ccn5c(=O)[nH]nc5c4cc3-c3ccccc3)cc2)CCC1 [MK-2206]; settings: max 10 µM
Outline: as §1

Crizotinib = compound: C[C@@H](Oc1cc(-c2cnn(C3CCNCC3)c2)cnc1N)c1c(Cl)ccc(F)c1Cl [Crizotinib]; settings: max 10 µM
Outline: as §1

SN-38 = compound: CCc1c2c(nc3ccc(O)cc13)-c1cc3c(c(=O)n1C2)COC(=O)[C@]3(O)CC [SN-38]; settings: max 0.3 µM
Outline: as §1

Savolitinib = compound: C[C@@H](c1ccc2nccn2c1)n1nnc2ncc(-c3cnn(C)c3)nc21 [Savolitinib]; settings: max 1 µM
Outline: as §1

Lapatinib = compound: CS(=O)(=O)CCNCc1ccc(-c2ccc3ncnc(Nc4ccc(OCc5cccc(F)c5)c(Cl)c4)c3c2)o1 [Lapatinib]; settings: max 10 µM
Outline: as §1

AZD8186 = compound: C[C@@H](Nc1cc(F)cc(F)c1)c1cc(C(=O)N(C)C)cc2c(=O)cc(N3CCOCC3)oc12 [AZD8186]; settings: max 10 µM
Outline: as §1

AZD1390 = compound: CC(C)n1c(=O)n(C)c2cnc3cc(F)c(-c4ccc(OCCCN5CCCCC5)nc4)cc3c21 [AZD1390]; settings: max 0.3 µM
Outline: as §1

AZD2811 = compound: CCN(CCO)CCCOc1ccc2c(Nc3cc(CC(=O)Nc4cccc(F)c4)[nH]n3)ncnc2c1 [AZD2811]; settings: max 1 µM
Outline: as §1

[1] = compound: O=C(Nc1ccc2[nH]nc(-c3ccncc3)c2c1)[C@@H]1CCN(CC(=O)N2CCN(c3ccc(-c4ncccn4)cc3)CC2)C1; settings: max 5 µM
Outline: as §1

AZD5363 = compound: C1CN(CCC1(C(=O)N[C@@H](CCO)C2=CC=C(C=C2)Cl)N)C3=NC=NC4=C3C=CN4 [AZD5363]; settings: max 10 µM
Outline: as §1

AZD5153 = compound: COc1nnc2ccc(N3CCC(c4ccc(OCCN5CCN(C)C(=O)[C@H]5C)cc4)CC3)nn12 [AZD5153]; settings: max 1 µM
Outline: as §1

5-Fluorouracil = compound: O=c1[nH]cc(F)c(=O)[nH]1 [5-Fluorouracil]; settings: max 20 µM
Outline: as §1

SG3199 = compound: CC1=CN2[C@@H](C1)C=NC3=CC(=C(C=C3C2=O)OC)OCCCCCOC4=C(C=C5C(=C4)N=C[C@@H]6CC(=CN6C5=O)C)OC [SG3199]; settings: max 0.001 µM
Outline: as §1

Etoposide = compound: COc1cc([C@@H]2c3cc4c(cc3[C@@H](O[C@@H]3O[C@@H]5CO[C@@H](C)O[C@H]5[C@H](O)[C@H]3O)[C@H]3COC(=O)[C@H]23)OCO4)cc(OC)c1O [Etoposide]; settings: max 10 µM
Outline: as §1

Prexasertib = compound: COc1cccc(OCCCN)c1-c1cc(Nc2cnc(C#N)cn2)n[nH]1 [Prexasertib]; settings: max 1 µM
Outline: as §1

Olaparib = compound: O=C(c1cc(Cc2n[nH]c(=O)c3ccccc23)ccc1F)N1CCN(C(=O)C2CC2)CC1 [Olaparib]; settings: max 10 µM
Outline: as §1

Trametinib = compound: CC(=O)Nc1cccc(-n2c(=O)n(C3CC3)c(=O)c3c(Nc4ccc(I)cc4F)n(C)c(=O)c(C)c32)c1 [Trametinib]; settings: max 1 µM
Outline: as §1

| Cell Line | IC50, cell viability 72 h (AZD1775) | IC50, cell viability 72 h (AZD6738) | IC50, cell viability 72 h (Taselisib) | IC50, cell viability 72 h (Gemcitabine) | IC50, cell viability 72 h (Paclitaxel) | IC50, cell viability 72 h (AZD7648) | IC50, cell viability 72 h (AZD4320) | IC50, cell viability 72 h (Venetoclax) | IC50, cell viability 72 h (Carboplatin) | IC50, cell viability 72 h (SRA737) | IC50, cell viability 72 h (Selumetinib) | IC50, cell viability 72 h (AZD5991) | IC50, cell viability 72 h (AZD0156) | IC50, cell viability 72 h (Palbociclib) | IC50, cell viability 72 h (Alisertib) | IC50, cell viability 72 h (Gefitinib) | IC50, cell viability 72 h (Dasatinib) | IC50, cell viability 72 h (Doxorubicin) | IC50, cell viability 72 h (MK-2206) | IC50, cell viability 72 h (Crizotinib) | IC50, cell viability 72 h (SN-38) | IC50, cell viability 72 h (Savolitinib) | IC50, cell viability 72 h (Lapatinib) | IC50, cell viability 72 h (AZD8186) | IC50, cell viability 72 h (AZD1390) | IC50, cell viability 72 h (AZD2811) | IC50, cell viability 72 h [1] | IC50, cell viability 72 h (AZD5363) | IC50, cell viability 72 h (AZD5153) | IC50, cell viability 72 h (5-Fluorouracil) | IC50, cell viability 72 h (SG3199) | IC50, cell viability 72 h (Etoposide) | IC50, cell viability 72 h (Prexasertib) | IC50, cell viability 72 h (Olaparib) | IC50, cell viability 72 h (Trametinib) |
| --- | --- | --- | --- | --- | --- | --- | --- | --- | --- | --- | --- | --- | --- | --- | --- | --- | --- | --- | --- | --- | --- | --- | --- | --- | --- | --- | --- | --- | --- | --- | --- | --- | --- | --- | --- |
| KMRC-1 (Kidney Carcinoma) | > 3000 nM | > 10 µM | > 10 µM | 133 nM | > 3000 nM | > 10 µM | > 1000 nM | > 1000 nM | > 10 µM | > 10 µM | > 10 µM | > 1000 nM | > 3000 nM | > 10 µM | > 10 µM | > 10 µM | 711 nM | > 1000 nM | > 10 µM | > 10 µM | > 300 nM | > 1000 nM | > 10 µM | 3.16 µM | > 300 nM | > 1000 nM | > 5 µM | > 10 µM | > 1000 nM | > 20 µM | > 1 nM | > 10 µM | 588 nM | > 10 µM | > 1000 nM |
| MDA-MB-453 (Breast Carcinoma) | 1510 nM | 3.96 µM | 0.521 µM | > 300 nM | 509 nM | > 10 µM | > 1000 nM | > 1000 nM | > 10 µM | > 10 µM | > 10 µM | > 1000 nM | > 3000 nM | > 10 µM | > 10 µM | > 10 µM | > 2000 nM | > 1000 nM | 3.56 µM | > 10 µM | 68.2 nM | > 1000 nM | > 10 µM | > 10 µM | > 300 nM | > 1000 nM | > 5 µM | 8.59 µM | 349 nM | > 20 µM | > 1 nM | > 10 µM | 42.9 nM | > 10 µM | > 1000 nM |
| SK-LU-1 (Lung Adenocarcinoma) | 1150 nM | > 10 µM | > 10 µM | > 300 nM | > 3000 nM | > 10 µM | > 1000 nM | > 1000 nM | > 10 µM | > 10 µM | > 10 µM | > 1000 nM | > 3000 nM | > 10 µM | – | > 10 µM | > 2000 nM | – | > 10 µM | > 10 µM | 145 nM | > 1000 nM | > 10 µM | > 10 µM | > 300 nM | > 1000 nM | > 5 µM | > 10 µM | > 1000 nM | > 20 µM | – | > 10 µM | – | > 10 µM | > 1000 nM |
